Assay results reported in a melting point compilation (Tetko et al.; mined from patent text by program, amines drawn as free bases though some values may be those of a salt).

Row | melting point [°C] | SMILES
1 | 176 to 178 | Cc1ncccc1Cn1nnnc1-c1ccc(Cl)c(Cl)c1
2 | 47 to 54 | N#CCC(=O)C(F)(F)C(F)(F)F
3 | 197 to 199 | CCOC(=O)C1=C(C)NC(C)=C(C(=O)OC)C1c1cccc(NC(C)=O)c1 (centres undefined)
4 | 110 | BrCc1nc(-c2ccccc2)nc2ccccc12
5 | 152 to 156 | O=C(O)CN1CCN(C(=O)c2cc(C(F)(F)F)cc(C(F)(F)F)c2)[C@H](Cc2c[nH]c3ccccc23)C1
6 | 220 to 221 | O=C(O)c1cc2cc(-c3ccccc3)ccc2o1
7 | 245 to 247 | NC(=O)c1cc(-c2ccnc(Nc3cccc(Cl)c3)n2)ccn1
8 | 154 to 155 | CC(=O)N1CCN=C1Nc1cc(-c2ccccc2)nn1C
9 | 139 | CC(=NNC(=O)C1CCC1)c1ccncc1
10 | 154 to 156 | COC(=O)c1ccc(-c2nc(C)no2)s1
11 | 62 to 64 | CC(C)(C)C(=O)Cn1cncn1
12 | 96 to 98 | CCOC(=O)C1=C[C@@H](OC(CC)CC)[C@@H](NC(C)=O)[C@H](N=[N+]=[N-])[C@@H]1OS(C)(=O)=O
13 | 98 to 100 | OC1Cc2ccccc2Sc2cc(F)c(F)cc21 (centres undefined)
14 | 162 to 164 | CNc1cc2cnnn2c(C)n1
15 | 174 to 175 | COc1cc(NC(=O)NS(=O)(=O)c2ccccc2C)nc(OC)n1
16 | 191 to 192 | ClC(Cl)(Cl)C1Oc2ccc(C=NNc3ccccc3)cc2C(C(Cl)(Cl)Cl)O1 (centres undefined)
17 | 147 | Nc1ccc(-c2ncn(-c3ccc(OC(F)(F)F)cc3)n2)cc1
18 | 186 | O=C(c1ccncc1)c1cccc(NC(=O)c2ccn3c2CSC3c2cccnc2)c1 (centres undefined)
19 | 103 to 104 | CC(C)(C)OC(=O)NCC(=O)NCC(=O)Oc1ccc(-c2nn(C3CCCC3)c3c(F)cccc23)cc1
20 | 176 | COc1cc(C(=O)c2ncc3c(C(=O)N(C)C)cccn23)ccc1[N+](=O)[O-]

Row | melting point [°C] | SMILES
21 | 96 to 98 | CCCCc1nc2c(N)nc3ccccc3c2o1
22 | 65 to 66 | Cc1ccc(C(C)N2C(=O)c3ccccc3C2=O)cc1 (centres undefined)
23 | 101 to 102 | CCOC(=O)c1ccc(NC2(C#N)CCCCC2)cc1
24 | 250 to 255 | CCNCC1(C)CN(c2c(F)cc3c(=O)c(C(=O)O)cn(C4CC4)c3c2F)C1
25 | 137 | CCOCc1nnc2c(C(F)(F)F)c(CN[C@H]3CC[C@@H](c4ccccc4)CC3)ccn12
26 | 280 to 284 | O=C(Nc1ccc(F)cc1)c1nnc2ccccc2c1O
27 | 116 to 117 | C=C(C1=C(CCC(=O)O)C(=O)CC1=O)c1ccccc1
28 | 220 to 226 | Nc1ncc2c(n1)-c1cccnc1CC2
29 | 211 to 212 | CCCc1c2[nH]c(C(=O)OCC)cc(=O)c2cc2c(=O)cc(C(=O)OCC)oc12
30 | 82 to 83 | OCCCCNc1nnc(-c2ccc(F)c(F)c2Nc2ccc(I)cc2F)o1
31 | 131 to 132 | CCCC(=O)N(Cc1ccc(-c2ccccc2-c2nc(=O)s[nH]2)cc1)c1sc(C)cc1C(=O)OC
32 | 195 | COC(=O)C1=C(C)NN=C(c2ccco2)C1c1ccccc1Cl (centres undefined)
33 | 104 to 107 | CCn1c(-c2ccc(OC)c(OC)c2)cc(=O)n(CC)c1=O
34 | 91 to 92 | N#Cc1c(N)cccc1N
35 | 74 to 76 | O=C(O)CCCCCN1CCCCC1
36 | 158 to 159 | CCOC(=O)Cc1csc(NC(=O)NC)n1
37 | 163 to 164 | CCn1ncc2c(NCCc3ccccc3)c3ccc(OC)cc3nc21
38 | 152 to 154 | O=C(O)C(Sc1nc2ccccc2s1)c1ccccc1 (centres undefined)
39 | 160 to 162 | CS(=O)(=O)Nc1ccc2nc(CCl)ccc2c1
40 | 104 to 106 | CN1CCN(c2ccccc2C=C2CCN(c3ccccc3)C2=O)CC1

The remaining lines, values behind:

Row | SMILES | melting point [°C]
41 | CCC[C@H](C)C(=O)O[C@H]1CCC=C2C=C[C@H](C)[C@H](CC[C@@H]3C[C@@H](O)CC(=O)O3)[C@H]21 | 110 to 112
42 | CCOC(=O)Cc1ccc2c(c1)sc1ccc(C)cc12 | 45 to 48
43 | O=C(c1ccccc1)c1ccc(O)c(Cl)c1Cl | 123 to 126
44 | Cc1ccc(CC2(OCc3ccccc3)CCN(CC3Cc4cc(O)ccc4C3O)CC2)cc1 (centres undefined) | 131 to 132
45 | Cc1ccc2c(c1)C(NC(=O)CCCCl)c1ccccc1CS2(=O)=O (centres undefined) | 203 to 204
46 | O=C(NC1CN2CCC1CC2)c1cccc2oc(-c3ccc(F)cc3)nc12 (centres undefined) | 208 to 209
47 | Cc1sc(C)c2c(=O)n3cc(C(N)=O)ccc3nc12 | 272 to 275
48 | O=C(NS(=O)(=O)c1ccccc1)c1ccc(C=CC(=O)N2CCc3c([nH]c4ccccc34)C2c2ccc3c(c2)OCO3)cc1 (centres undefined) | 134
49 | NS(=O)(=O)C1=CCC(n2nc(C(F)(F)F)c3ccc4ccccc4c32)C=C1 (centres undefined) | 257 to 258
50 | CC(Nc1ccccc1)c1ccc(C(C)Nc2ccccc2)cc1 (centres undefined) | 169 to 170
51 | COc1ccc(C(O)c2cccnc2)cn1 (centres undefined) | 129 to 130
52 | Cc1c(-c2ccccc2)oc2c(OCCCCCBr)cccc2c1=O | 75 to 76
53 | N#Cc1cccnc1CC1C(=O)C2(COc3cc4c(cc32)OCCO4)c2ccccc21 (centres undefined) | 230 to 233
54 | CCOC(=O)c1cc2c(cn1)[nH]c1ccc(N(C)C)cc12 | 220 to 221
55 | Cc1cnccc1C(CCC(=O)O)C(=O)c1cccc(OCc2ccccc2)c1 (racemic) | 55 to 57
56 | O=C1CCSC(c2ccccc2Cl)c2cc([N+](=O)[O-])ccc2N1 (centres undefined) | 285
57 | CCN(CC)CC1CCCCN1CC(=O)N1c2ccccc2NC(=O)c2csc(C)c21 (centres undefined) | 147 to 149
58 | CNC(=O)[C@H](NC(=O)c1ccc(F)cc1C(F)(F)F)[C@@H](CNC(C)=O)c1ccccc1 (racemic) | 199
59 | Cc1cccc(-n2ncc(-c3ccc(S(C)(=O)=O)cc3)c(-c3ccc(F)cc3)c2=O)c1 | 213 to 216
60 | CCCC(=O)NCC1Cc2cccc3cccc1c23 (centres undefined) | 111

Row | SMILES | melting point [°C]
61 | C=C(C)Cn1c(=O)n(C)c(=O)c2c(SCCCO)n(Cc3cccc4ccccc34)nc21 | 138 to 139
62 | CC(C)CSc1ccc(-c2nc(=O)c3ccccc3s2)cn1 | 92.8 to 93.1
63 | N#Cc1cc(-c2ccccc2F)[nH]c1Cl | 218 to 220
64 | COCCn1cnc2cc(CN3CCN(C(c4ccccc4)c4ccccc4)CC3)ccc21 | 162
65 | CC(C)(C)OC(=O)N1[C@@H](CC2CCCCC2)[C@H](CC2SCCCS2)OC1(C)C | 104 to 106
66 | N#CC(CN)C(CO)c1ccc(Cl)c(Cl)c1 (single isomer, unassigned; (+)) | 80 to 81
67 | C1=C(COc2ccccc2)CCN(Cc2c[nH]c3ccccc23)C1 | 140 to 142
68 | CC(C)NCCn1c(-c2ccc(O)cc2)cc2c1CCCC2 | 149 to 150
69 | CCCc1nc(C(C)(C)O)c(C(=O)O)n1Cc1ccc(-c2ccccc2-c2nnn[nH]2)cc1 | 166 to 169
70 | CCCc1c(OCCCCCOc2ccc(C(=O)CCCC(=O)O)cc2CCC(=O)O)ccc2c1OCCC2=O | 151 to 154
71 | Cc1cc(/C=C/C(c2cc(Cl)cc(Cl)c2)C(F)(F)F)ccc1C(=O)NCc1cncnc1 (centres undefined) | 141 to 144
72 | OCCOc1cc(O)ccc1-c1nc2cnccc2[nH]1 | 250
73 | CCCCn1c(=O)n(CCC)c(=O)c2c3n(nc21)CCCN3C | 94 to 98
74 | CCOC(=O)c1cn(-c2nc(N)c(Cl)cc2F)c2c(Cl)c(F)c(F)cc2c1=O | 186 to 189
75 | O=C(NCCc1ccc(Cl)cc1)c1c(Cl)ccc2nc(N3CCC(C(=O)O)CC3)ccc12 | 231 to 234
76 | Cc1ccc(S(=O)(=O)Nc2ccc3c(=O)c4c(sc3c2)CC(C)(C)CC4)cc1 | 279
77 | CCC(C)Nc1c(-c2ccc(OC)cc2Cl)c(Cl)nc2ncnn12 (centres undefined) | 116
78 | CC(C)(O)C#Cc1ccc2[nH]ccc2c1 | 119 to 123
79 | Cc1nc(-c2ccc(-c3ccc(C(=O)O)cc3)c(C)c2)no1 | 229 to 231
80 | COc1ccc(N(CCCC(=O)O)C(=O)c2ccc(Cl)cc2)cc1-c1ccccc1 | 114 to 116

Row | SMILES | melting point [°C]
81 | CCC(O)(CC)[C@H](C[C@H](O)[C@H](CC1CCCCC1)NC(=O)OC(C)(C)C)C(=O)NC | 152 to 155
82 | CC(=O)c1ccc(S(=O)(=O)N(CCO)CCO)cc1 | 87.5 to 89.5
83 | CCCCCCCCCCCCC(C)COc1ccc(C(C)=O)o1 (centres undefined) | 45 to 47
84 | COc1ccc2c(c1)C(=O)C(=O)C1=C2OC2(CCN(CC(O)Cc3ccccc3)CC2)CS1 (centres undefined) | 146 to 147
85 | N#CCc1ccc(NC(=O)C=C2CC(C(=O)O)Nc3cc(Cl)cc(Cl)c32)cc1 (racemic) | 200 to 202
86 | OC1CCN(c2ncc3ncnc(Nc4ccc(F)c(Cl)c4)c3n2)CC1 | 243 to 246
87 | Cc1ccc(-n2nc(C(=O)CCCO)cc2-c2ccc(S(C)(=O)=O)cc2)cc1 | 159 to 161
88 | Fc1cncc(F)c1C1=NC(c2ccc(I)cc2)CO1 (centres undefined) | 84 to 86
89 | CC(C)Cc1c(C(=O)OC(C)(C)C)c(C(F)F)nc(C(F)(F)F)c1C(=O)OC(C)(C)C | 48 to 50
90 | O=C(O)c1cc(C#Cc2ccccc2)c(C(=O)O)cc1C#Cc1ccccc1 | > 360
91 | Cc1ccccc1-n1c(C=Cc2ccccc2F)nc2ccsc2c1=O | 220 to 221
92 | CC(=O)Nc1ccc2cccc(Oc3cc(N4CCN([C@H](C)c5ccc(F)cc5)CC4)ncn3)c2n1 | 134
93 | CCC1(CC(=O)O)OCCc2c1[nH]c1ccc(OCc3ccccc3)cc21 (centres undefined) | 163 to 165
94 | Cc1ccc(S(=O)(=O)C=C(Cl)C#N)cc1 | 78
95 | COc1ccc(C(F)(F)F)cc1Nc1ccc(C(F)(F)F)cc1[N+](=O)[O-] | 86 to 88
96 | OCCC#Cc1ncccn1 | 58 to 64
97 | O=c1[nH]c2ccccc2n1CCCN1CCC(C(O)(c2ccc(F)cc2)c2ccc(F)cc2)CC1 | 141 to 143
98 | NCCCn1ccc2cc(NC(=O)c3nc4ccc(Cl)cc4n3Cc3ccccc3)ccc21 | 106 to 108
99 | CC1(C)CCC(C)(C)c2cc(CC#Cc3ccc(C(=O)NO)c(O)c3)ccc21 | 119 to 120
